Measurements reported in ChEMBL document CHEMBL1201862, “PubChem BioAssay data set” (2004).
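Interpolation was linear, between the two tested concentrations surrounding the appropriate level; five concentrations were tested over 48 hours in 96-well plates. GI50 marks 50% less growth.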 Calls of active or inactive are those of the source. Cut-off read from the data, not from the text of the source: active = GI50 up to about 1.1 µM and inactive = higher.

Tests used:
Test in all cases: inhibition of tumour cell growth, NCI panel, 48 h
A498 = tested on: A498
ACHN = tested on: ACHN
CAKI-1 = tested on: CAKI-1
CCRF-CEM = tested on: CCRF-CEM
COLO 205 = tested on: COLO 205
HT-29 = tested on: HT-29
IGROV-1 = tested on: IGROV-1
LOX IMVI = tested on: LOX IMVI
MCF7 = tested on: MCF7
OVCAR-8 = tested on: OVCAR-8
SF-268 = tested on: SF-268
SK-MEL-28 = tested on: SK-MEL-28
SN12C = tested on: SN12C
SW-620 = tested on: SW-620
T47D = tested on: T47D
TK-10 = tested on: TK-10
UACC-62 = tested on: UACC-62
HOP-62 = tested on: HOP-62
SK-OV-3 = tested on: SK-OV-3

Measured: GI50

COc1ccc(C2SCC(=O)N2NC(=O)C(C)Oc2ccccc2Cl)cc1 (stereo unspecified)
inactive: A498 28.1 µM | ACHN 38.5 µM | CAKI-1 > 100 µM | CCRF-CEM 31.8 µM | COLO 205 26.5 µM | HT-29 65.8 µM | IGROV-1 56.2 µM | LOX IMVI 24.5 µM | MCF7 32.4 µM | OVCAR-8 61.1 µM | SF-268 > 100 µM | SK-MEL-28 > 100 µM | SN12C 63.2 µM | SW-620 49.4 µM | T47D 27.2 µM | TK-10 63.2 µM | UACC-62 46 µM

CC1=NN(c2cc(Cl)c(S(=O)(=O)O)cc2Cl)C2(C1)C(Cl)C(=O)N2c1nc2ccccc2s1 (stereo unspecified)
inactive: A498 80 µM | ACHN > 100 µM | CAKI-1 > 100 µM | CCRF-CEM 30.3 µM | COLO 205 > 100 µM | HT-29 > 100 µM | IGROV-1 35 µM | LOX IMVI 29.4 µM | MCF7 46.2 µM | OVCAR-8 86.9 µM | SF-268 > 100 µM | SK-MEL-28 > 100 µM | SN12C > 100 µM | SW-620 > 100 µM | T47D 66.1 µM | TK-10 68.5 µM | UACC-62 71 µM

CC[C@H](C)C1=C(OC(C)=O)[N@+]2([O-])Oc3ccc(-c4c(O)c(O)c(-c5ccc(OC(C)=O)cc5)c(OC(C)=O)c4OC(C)=O)cc3O[C@]2([C@@H](C)CC)C(=O)N1O
inactive: A498 7.85 µM | ACHN 14.9 µM | CAKI-1 26.3 µM | COLO 205 19.8 µM | HOP-62 24.6 µM | HT-29 17.6 µM | IGROV-1 17 µM | LOX IMVI 17.5 µM | MCF7 19.4 µM | OVCAR-8 18.4 µM | SF-268 18.8 µM | SK-MEL-28 27 µM | SK-OV-3 17.3 µM | SN12C 19.4 µM | SW-620 11.1 µM | T47D 15.1 µM | TK-10 20.4 µM | UACC-62 14.7 µM

CN(C)C(=S)N/N=C\C(=N/NC(=S)N(C)C)c1ccccc1
inactive: A498 7.21 µM | ACHN 3.72 µM | CAKI-1 7.24 µM | COLO 205 4.03 µM | HOP-62 6.05 µM | HT-29 5.16 µM | IGROV-1 3.7 µM | LOX IMVI 9.02 µM | MCF7 4.03 µM | OVCAR-8 4.82 µM | SF-268 4.14 µM | SK-MEL-28 7.16 µM | SK-OV-3 12.3 µM | SN12C 6.24 µM | SW-620 4.53 µM | T47D 1.28 µM | TK-10 6.87 µM | UACC-62 8.41 µM

c1ccc(C(C2=Nc3cccc4cccc(c34)N2)c2ccccc2)cc1
inactive: ACHN 19.3 µM | CAKI-1 22.6 µM | CCRF-CEM 39.2 µM | COLO 205 18.9 µM | HOP-62 23.1 µM | HT-29 23.2 µM | IGROV-1 33.9 µM | LOX IMVI 18.7 µM | MCF7 31.8 µM | OVCAR-8 30.7 µM | SF-268 24.4 µM | SK-MEL-28 23.6 µM | SK-OV-3 21.5 µM | SN12C 14.8 µM | SW-620 47.3 µM | T47D 13.3 µM | TK-10 47.9 µM | UACC-62 17.5 µM

O=C(/C=C/c1ccc(Cl)cc1)c1ccc(Cl)s1
inactive: A498 19.1 µM | ACHN 87.3 µM | CCRF-CEM 27 µM | COLO 205 70.8 µM | HOP-62 > 100 µM | HT-29 42.3 µM | IGROV-1 49.2 µM | LOX IMVI 12.2 µM | MCF7 4.8 µM | OVCAR-8 55.8 µM | SF-268 72.1 µM | SK-MEL-28 50.1 µM | SK-OV-3 98.6 µM | SN12C > 100 µM | SW-620 22 µM | T47D 46 µM | TK-10 85.3 µM | UACC-62 23.4 µM

COP(=O)(OC)C(O)/C=C/c1ccco1 (stereo unspecified)
inactive: A498 > 100 µM | ACHN > 100 µM | CAKI-1 > 100 µM | COLO 205 > 100 µM | HOP-62 > 100 µM | HT-29 > 100 µM | IGROV-1 > 100 µM | LOX IMVI > 100 µM | MCF7 > 100 µM | OVCAR-8 > 100 µM | SF-268 > 100 µM | SK-MEL-28 > 100 µM | SK-OV-3 > 100 µM | SN12C > 100 µM | SW-620 > 100 µM | T47D > 100 µM | UACC-62 > 100 µM

O=C(O)C1OC1C(=O)O (stereo unspecified)
inactive: A498 > 100 µM | ACHN > 100 µM | CAKI-1 > 100 µM | COLO 205 > 100 µM | HOP-62 > 100 µM | HT-29 > 100 µM | IGROV-1 > 100 µM | LOX IMVI > 100 µM | MCF7 > 100 µM | OVCAR-8 > 100 µM | SF-268 > 100 µM | SK-MEL-28 > 100 µM | SK-OV-3 > 100 µM | SN12C > 100 µM | SW-620 > 100 µM | T47D > 100 µM | TK-10 > 100 µM | UACC-62 > 100 µM
